A short description of data set [1]: Molar enthalpy of transition or fusion. Conditions: Crystal; DSC.

Each structure is given as a SMILES string. ± gives the expanded uncertainty stated by the source.

With `COc1ccc(C2(c3ccc(OC)c(C)c3)OC(=O)c3ccccc32)cc1C` [3,3-bis(4-methoxy-3-methylphenyl)-1(3H)-isobenzofuranone], under “Crystal, DTA”, the Normal melting temperature came to 110.1 ± 0.4 °C. Moreover, the Glass transition temperature (Glass, Adiabatic calorimetry) stood at 41.2 ± 0.1 °C. Moreover, in data set [1], the “Molar enthalpy of transition or fusion” value came out at 6.67 ± 0.143 kcal/mol.

Source of the values: the NIST ThermoML archive (doi:10.1016/j.tca.2016.05.007).
